The target of one series is CYP3A4 (Homo sapiens (Human), UniProt P08684). In words: CYP3A4 (MDZ) MBI test. It counts as in vitro ADME. The note with it: pooled human liver microsomes; midazolam 1-hydroxylation; preincubation 0 vs 30 min. The procedure: CYP3A4 (MDZ) MBI test is a test of investigating mechanism based inhibition (MBI) potential on CYP3A4 by the enhancement of inhibitory degree of a metabolic reaction caused by the compound of the present invention. CYP3A4 inhibition was evaluated using pooled human liver microsomes by 1-hydroxylation reaction of midazolam (MDZ) as a marker reaction.
The reaction conditions are as follows: substrate, 10 μmol/L MDZ; pre-reaction time, 0 or 30 minutes; substrate reaction time, 2 minutes; reaction temperature, 37° C.; protein content of pooled human liver microsomes, at pre-reaction time 0.5 mg/mL, at reaction time 0.05 mg/mL (at 10-fold dilution); concentrations of the compound of the present invention, at pre-reaction time 1, 5, 10, 20 μmol/L (four points).
Pooled human liver microsomes and a solution of the compound of the present invention in K-Pi buffer (pH 7.4) as a pre-reaction solution were added to a 96-well plate at the composition of the pre-reaction. A part of pre-reaction solution was transferred to another 96-well plate, and 1/10 diluted by K-Pi buffer containing a substrate. NADPH as a co-factor was added to initiate a reaction as a marker reaction (without pre-reaction). After a predetermined time of a reaction, methanol/acetonitrile=1/1 (V/V) solution was added to stop the reaction. In addition, NADPH was added to a remaining pre-reaction solution to initiate a pre-reaction (with pre-reaction). After a predetermined time of a pre-reaction, a part was transferred to another plate, and 1/10 diluted by K-Pi buffer containing a substrate to initiate a reaction as a marker reaction. After a predetermined time of a reaction, methanol/acetonitrile=1/1 (V/V) solution was added in order to stop the reaction. The plate on which each index reaction had been performed was centrifuged at 3000 rpm for 15 minutes, and thereafter 1-hydroxylated midazolam in the supernatant was quantified by LC/MS/MS.
The sample adding DMSO as a solvent to a reaction system instead of a solution dissolving the compound of the present invention was adopted as a control (100%). Remaining activity (%) was calculated at each concentration of the compound of the present invention compared to a control, and IC value was calculated by reverse-presumption by a logistic model using a concentration and an inhibition rate. IC at Preincubation 0 min/IC at Preincubation 30 min was defined as a value of Shifted IC, and a case that Shifted IC was 1.5 or more was regarded as Positive, and a case that Shifted IC was 1.0 or less was regarded as Negative.

The next series deals with hERG (IKr) (Homo sapiens (Human), UniProt Q12809). In words: hERG test. The note with it: CHO cells expressing hERG channel, pH 7.4, 10 μmol/L of test compound, read-out: % inhibition of hERG tail peak current (IKr). The series is classed as cell-based. The text has this: For the purpose of assessing risk of an electrocardiogram QT interval prolongation of the compound of the present invention, effects of the compound of the present invention on delayed rectifier K^+ current (IKr), which plays an important role in the ventricular repolarization process, was studied using CHO cells expressing human ether-a-go-go related gene (hERG) channel.
After a cell was retained at a membrane potential of −80 mV by whole cell patch clamp method using an automated patch clamp system (QPatch; Sophion BIoscience A/S), IKr induced by application of a leak potential of −50 mV followed by depolarization pulse stimulation at +20 mV for 2 seconds and, further, repolarization pulse stimulation at −50 mV for 2 seconds, was recorded. […] From the recording IKr, an absolute value of the tail peak current was measured based on the current value at the resting membrane potential using analysis software (Falster Patch; Sophion Bioscience A/S). Further, the % inhibition of tail peak current for the compound of the present invention relative to the tail peak current after application of the vehicle is calculated to assess influence of the compound of the present invention on IKr.
(The hERG channel carries a current that helps repolarise heart muscle cells.)

The next series is described as follows: Powder solubility test. The series is classed as physicochemical. As to conditions: pH 6.8, aqueous buffer, thermodynamic from solid, JP-2 solution, 37° C. The procedure:
Appropriate quantity of the compound of the present invention was put in suitable containers. 200 μL of JP-1 solution (water was added to 2.0 g of sodium chloride and 7.0 mL of hydrochloric acid to reach 1000 mL), 200 μL of JP-2 solution (500 mL of water was added to 500 mL of phosphate buffer (pH 6.8)) or 20 mmol/L sodium taurocholate (TCA)/JP-2 solution (JP-2 solution was added to 1.08 g of TCA to reach 100 mL) was independently added to each container. When total amount was dissolved after adding the test reagent, the compound of the present invention was added appropriately. After sealing and shaking at 37° C. for 1 hour, solution was filtrated and 100 μL of methanol was added to 100 μL of each filtrate to dilute two-fold. The dilution ratio and the dilution solvent were changed as necessary. After checking that there was no bubble and deposit, the container was sealed and shaken. The compound of the present invention was measured using HPLC by absolute calibration curve method.

Converted amounts (≈) assume the structure as drawn.

Sequence of CYP3A4 (P08684 whole entry): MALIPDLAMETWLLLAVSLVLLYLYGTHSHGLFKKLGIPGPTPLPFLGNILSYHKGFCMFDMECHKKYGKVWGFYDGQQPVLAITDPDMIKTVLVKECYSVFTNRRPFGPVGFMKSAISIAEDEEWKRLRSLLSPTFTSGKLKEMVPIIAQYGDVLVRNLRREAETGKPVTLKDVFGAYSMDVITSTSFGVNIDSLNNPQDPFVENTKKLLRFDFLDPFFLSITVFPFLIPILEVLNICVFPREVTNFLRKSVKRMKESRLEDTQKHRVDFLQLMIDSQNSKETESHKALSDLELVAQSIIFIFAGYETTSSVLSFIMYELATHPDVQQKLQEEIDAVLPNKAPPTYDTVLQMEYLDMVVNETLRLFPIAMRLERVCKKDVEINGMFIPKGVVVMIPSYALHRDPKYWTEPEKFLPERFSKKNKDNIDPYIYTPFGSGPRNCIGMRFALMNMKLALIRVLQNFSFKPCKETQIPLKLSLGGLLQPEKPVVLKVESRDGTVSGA
Sequence of hERG (IKr) (Q12809 whole entry): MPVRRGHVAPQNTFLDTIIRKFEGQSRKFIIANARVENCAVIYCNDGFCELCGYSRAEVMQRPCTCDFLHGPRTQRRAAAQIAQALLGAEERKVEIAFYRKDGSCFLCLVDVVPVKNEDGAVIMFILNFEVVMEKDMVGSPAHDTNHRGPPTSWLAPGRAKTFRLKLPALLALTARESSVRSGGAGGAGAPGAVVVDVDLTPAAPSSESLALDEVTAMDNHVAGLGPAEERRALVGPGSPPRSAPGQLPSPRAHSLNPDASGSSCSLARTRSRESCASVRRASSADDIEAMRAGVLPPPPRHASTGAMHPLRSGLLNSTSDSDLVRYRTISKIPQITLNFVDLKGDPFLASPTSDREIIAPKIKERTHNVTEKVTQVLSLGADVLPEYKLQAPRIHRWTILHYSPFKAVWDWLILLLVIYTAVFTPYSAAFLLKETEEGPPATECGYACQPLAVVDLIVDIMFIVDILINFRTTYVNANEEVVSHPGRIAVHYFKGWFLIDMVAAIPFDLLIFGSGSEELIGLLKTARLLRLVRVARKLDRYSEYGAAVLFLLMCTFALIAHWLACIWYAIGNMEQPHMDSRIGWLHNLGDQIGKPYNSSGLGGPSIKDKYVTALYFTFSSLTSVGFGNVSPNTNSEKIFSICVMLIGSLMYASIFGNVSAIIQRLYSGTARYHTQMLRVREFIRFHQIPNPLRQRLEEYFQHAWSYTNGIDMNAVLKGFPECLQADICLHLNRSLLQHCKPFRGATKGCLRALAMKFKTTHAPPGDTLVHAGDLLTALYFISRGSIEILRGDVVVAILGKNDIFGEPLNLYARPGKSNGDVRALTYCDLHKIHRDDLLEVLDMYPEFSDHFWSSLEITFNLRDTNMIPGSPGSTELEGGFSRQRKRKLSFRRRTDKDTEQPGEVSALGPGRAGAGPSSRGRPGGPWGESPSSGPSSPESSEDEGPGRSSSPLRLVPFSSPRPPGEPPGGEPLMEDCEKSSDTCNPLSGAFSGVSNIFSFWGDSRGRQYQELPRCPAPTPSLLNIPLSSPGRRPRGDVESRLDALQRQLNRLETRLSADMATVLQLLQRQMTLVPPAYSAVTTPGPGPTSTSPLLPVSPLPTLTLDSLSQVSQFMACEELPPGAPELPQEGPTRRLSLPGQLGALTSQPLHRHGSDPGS

Consider `N#Cc1ccc(-c2nn3c(c2NC(=O)CC(F)(F)F)C(=O)N[C@@]2(CCc4cc(OCC(F)(F)F)ccc42)C3)nc1` [Compound I-14], for which the “CYP3A4 (MDZ) MBI (Shifted IC judgement)” value on CYP3A4 was “Negative (a case that Shifted IC was 1.0 or less was regarded as Negative)”. Further, on hERG (IKr), the inhibition (as a rule, how much of the control response was suppressed) at 10 min, 10 μmol/L stood at 25.5%.

On to `Cc1ccc(-c2nn3c(c2NC(=O)CS(C)(=O)=O)C(=O)N[C@@]2(CCc4cc(OCC(F)(F)F)ccc42)C3)nc1` [Compound I-6], for which the “CYP3A4 (MDZ) MBI (Shifted IC judgement)” value on CYP3A4 is recorded as “Negative (a case that Shifted IC was 1.0 or less was regarded as Negative)”.

As for `Cc1ccc(-c2nn3c(c2NC(=O)CS(C)(=O)=O)C(=O)N[C@@]2(CCc4cc(OCC(F)(F)F)ccc42)C3)cc1` [Compound I-20], the “CYP3A4 (MDZ) MBI (Shifted IC judgement)” value at CYP3A4 is listed as “Negative (a case that Shifted IC was 1.0 or less was regarded as Negative)”. In addition, the inhibition at 10 min, 10 μmol/L on hERG (IKr) is 27.8%.

With `CS(=O)(=O)CC(=O)Nc1c(CCC2CC2)nn2c1C(=O)N[C@@]1(CCc3cc(OCC(F)(F)F)ccc31)C2` [Compound I-46], the “CYP3A4 (MDZ) MBI (Shifted IC judgement)” value at CYP3A4 is listed as “Negative (a case that Shifted IC was 1.0 or less was regarded as Negative)”. Besides, in the series “Powder solubility test”, the solubility – broadly, the concentration that dissolves in the medium under given conditions – at 1 h amounted to 8.64 µM (≈ 4.67 µg/mL).

Take `CS(=O)(=O)CC(=O)Nc1c(CCC(F)(F)F)nn2c1C(=O)N[C@@]1(CCc3cc(OCC(F)(F)F)ccc31)C2` [Compound I-58]: at CYP3A4, the “CYP3A4 (MDZ) MBI (Shifted IC judgement)” value is on record as “Negative (a case that Shifted IC was 1.0 or less was regarded as Negative)”.

(Values after patent publication US12227509B2, “Dihydropyrazolopyrazinone derivative having MGAT2 inhibitory activity” (Shionogi & Co., Ltd., priority 2019, dated 2025).)
